In patent US12297201B2, “Substituted pyrrolo[2,3-d]pyrimidines as antimicrobials” (BIOVERSYS AG, priority 2018, dated 2025):

Legend:
[1] = system: Staphylococcus aureus (S. aureus) 11540 strain; assay: standard microdilution assay to determine MIC against S. aureus; format: cell-based
Experimental: (§1) The in vitro activity of the compounds of the present disclosure can be determined. Antimicrobial testing is typically performed to determine the minimum inhibitory concentration (MIC). Minimum inhibitory concentrations (MICs) are determined by the microdilution method in a final volume of 100 μl according to protocols outlined by The Clinical and Laboratory Standards Institute (CLSI). Performance standards for reference strains are assessed within the same experimental design to maintain quality control. See, for example, Clinical Laboratory Standards Institute: Methods for dilution antimicrobial susceptibility tests for bacteria that grow aerobically M7-A8. Approved Standard-Eighth Edition. Wayne, Pa.: CLSI; December 2008; and Clinical Laboratory Standards Institute: Performance Standards for Antimicrobial Susceptibility Testing M100-S20; Approved Standard-Twentieth Edition. Wayne, Pa.: CLSI; June 2010. The compounds of the present disclosure were tested for antimicrobial activity. The Compounds 1-105 were run against Escherichia coli (E. coli) strain ATCC25922 and against Staphylococcus aureus (S. aureus) 11540 strain using a standard microdilution assay to determine minimum inhibitory concentrations (MICs). […] It will be recognized by one skilled in the art that the compounds can be assessed against other bacterial organisms and that the presentation of data for activity against Escherichia coli and Staphylococcus aureus are illustrative and in no way is intended to limit the scope of the present disclosure. The compounds of the present disclosure can be assayed against a range of other microorganisms depending upon the performance activity desired to be gathered. Furthermore, the “+” and “−” representation and the selection of a cutoff value of 16 micrograms/mL is also illustrative and in no way is intended to limit the scope of the present disclosure.

[2] = system: Escherichia coli (E. coli) strain ATCC25922; assay: standard microdilution assay to determine MIC against E. coli; format: cell-based
Experimental: as §1

SMILES	MIC [1] [µg/mL]	MIC [2] [µg/mL]
CCCN1[C@H](CCOC(=N)N)CCC[C@H]1c1ccc(-n2cc3cc(-c4cc(CCC[C@H](C)N)cc(Cl)c4F)[nH]c3nc2=O)cc1 [Compound 7]	≤ 16	≤ 16
C[C@H](N)CCCc1cc(Cl)c(F)c(-c2cc3cn(-c4ccc([C@@H]5CCC[C@@H](CCOC(=N)N)N5CCC5CC5)cc4)c(=O)nc3[nH]2)c1 [Compound 9]	≤ 16	≤ 16
C[C@H](N)CCCc1cc(Cl)c(F)c(-c2cc3cn(-c4ccc([C@@H]5CCC[C@@H](CCOC(=N)N)N5CCC5CCOCC5)cc4)c(=O)nc3[nH]2)c1 [Compound 4]	≤ 16	≤ 16
C[C@H](N)CCCc1cc(Cl)c(F)c(-c2cc3cn(-c4ccc([C@@H]5CCC[C@@H](CCOC(=N)N)N5CCF)cc4)c(=O)nc3[nH]2)c1 [Compound 5]	≤ 16	≤ 16
COCCN1[C@H](CCOC(=N)N)CCC[C@H]1c1ccc(-n2cc3cc(-c4cc(CCC[C@H](C)N)cc(Cl)c4F)[nH]c3nc2=O)cc1 [Compound 6]	≤ 16	≤ 16
C[C@H](N)CCCc1cc(Cl)c(F)c(-c2cc3cn(-c4ccc([C@@H]5CCC[C@@H](CCOC(=N)N)N5CCCF)cc4)c(=O)nc3[nH]2)c1 [Compound 3]	≤ 16	≤ 16
CSCCN1[C@H](CCOC(=N)N)CCC[C@H]1c1ccc(-n2cc3cc(-c4cc(CCC[C@H](C)N)cc(Cl)c4F)[nH]c3nc2=O)cc1 [Compound 8]	≤ 16	≤ 16
C[C@H](N)CCCc1cc(Cl)c(F)c(-c2cc3cn(-c4ccc([C@@H]5CCC[C@@H](CCOC(=N)N)N5C)cc4)c(=O)nc3[nH]2)c1 [Compound 2]	≤ 16	≤ 16

Next, values leading:

MIC [1] [µg/mL]	MIC [2] [µg/mL]	SMILES
≤ 16	≤ 16	CN1[C@H](CCOC(=N)N)CCC[C@H]1c1ccc(-n2cc3cc(-c4cc(CCC[C@@H](N)C5CC5)cc(Cl)c4F)[nH]c3nc2=O)cc1 [Compound 17]
≤ 16	≤ 16	C=C[C@H](N)CCCc1cc(Cl)c(F)c(-c2cc3cn(-c4ccc([C@@H]5CCC[C@@H](CCOC(=N)N)N5C)cc4)c(=O)nc3[nH]2)c1 [Compound 18]
≤ 16	≤ 16	CC(C)CN1[C@H](CCOC(=N)N)CCC[C@H]1c1ccc(-n2cc3cc(-c4cc(CCC[C@H](C)N)cc(Cl)c4F)[nH]c3nc2=O)cc1 [Compound 10]
≤ 16	≤ 16	C=CCN1[C@H](CCOC(=N)N)CCC[C@H]1c1ccc(-n2cc3cc(-c4cc(CCC[C@H](C)N)cc(Cl)c4F)[nH]c3nc2=O)cc1 [Compound 13]
≤ 16	≤ 16	C[C@H](N)CCCc1cc(Cl)c(F)c(-c2cc3cn(-c4ccc([C@@H]5CCC[C@@H](CCOC(=N)N)N5CCCO)cc4)c(=O)nc3[nH]2)c1 [Compound 12]
≤ 16	≤ 16	CN1[C@H](CCOC(=N)N)CCC[C@H]1c1ccc(-n2cc3cc(-c4cc(CCC[C@@H](N)COC(=N)N)cc(Cl)c4F)[nH]c3nc2=O)cc1 [Compound 19]
≤ 16	≤ 16	CCN1[C@H](CCOC(=N)N)CCC[C@H]1c1ccc(-n2cc3cc(-c4cc(CCC[C@H](C)N)cc(Cl)c4F)[nH]c3nc2=O)cc1 [Compound 14]
≤ 16	≤ 16	COC(=N)NCC[C@@H]1CCC[C@@H](c2ccc(-n3cc4cc(-c5cc(CCC[C@H](C)N)cc(Cl)c5F)[nH]c4nc3=O)cc2)N1 [Compound 20]
≤ 16	≤ 16	COC(=O)CN1[C@H](CCOC(=N)N)CCC[C@H]1c1ccc(-n2cc3cc(-c4cc(CCC[C@H](C)N)cc(Cl)c4F)[nH]c3nc2=O)cc1 [Compound 11]
≤ 16	≤ 16	C[C@H](N)CCCc1cc(Cl)c(F)c(-c2cc3cn(-c4ccc([C@@H]5CCC[C@@H](CCOC(=N)N)N5CCCSC(=N)N)cc4)c(=O)nc3[nH]2)c1 [Compound 15]
≤ 16	≤ 16	C[C@H](N)CCCc1cc(Cl)c(F)c(-c2cc3cn(-c4ccc([C@@H]5CCC[C@@H](CCOC(=N)N)N5C5CC5)cc4)c(=O)nc3[nH]2)c1 [Compound 16]
